For 20 molecules, IC50 results are on record in patent US20250034150A1, “BTK INHIBITORS” (BIOGEN MA INC., priority 2021, published 2025).

Test [1] has as its system CD69 expression on CD19+ B cells in human whole blood. The test is described as follows: In Vitro whole blood CD69 Assay. Particulars: B-cell, read-out: In Vitro HWB CD69 Assay IC50 Score. In kind it is cell-based. The protocol: Human heparinized venous blood from health donors was aliquoted into 96-well plate and “spiked” with serial dilutions of formula I compounds in DMSO or with DMSO without drug. The final concentration of DMSO in all wells was 0.1%. The plate was incubated at 37° C. for 30 min. Drug-containing samples were stimulated with 0.1 μg/mL mouse anti-human IgD-dextran (1A62) or 20 μg/mL polyclonal rabbit F(ab′)2 anti-human IgD. Phosphate-buffered saline (PBS) was added to the negative control unstimulated sample and the plates were incubated overnight (18 to 22 hours) at 37° C. Cells were stained with fluorochrome-conjugated anti-CD19 and anti-CD69 antibodies. Lyse/fix solution was used to remove red blood cells by hypotonic lysis and to fix the remaining cells, which were then analyzed by flow cytometry. CD19+ B cells were gated and analyzed for CD69 expression.

For test [2], the target named is T1, BTK (Homo sapiens, UniProt Q06187).
T1 construct: purchased Upstate 14-552
T1 sequence (Q06187 whole entry): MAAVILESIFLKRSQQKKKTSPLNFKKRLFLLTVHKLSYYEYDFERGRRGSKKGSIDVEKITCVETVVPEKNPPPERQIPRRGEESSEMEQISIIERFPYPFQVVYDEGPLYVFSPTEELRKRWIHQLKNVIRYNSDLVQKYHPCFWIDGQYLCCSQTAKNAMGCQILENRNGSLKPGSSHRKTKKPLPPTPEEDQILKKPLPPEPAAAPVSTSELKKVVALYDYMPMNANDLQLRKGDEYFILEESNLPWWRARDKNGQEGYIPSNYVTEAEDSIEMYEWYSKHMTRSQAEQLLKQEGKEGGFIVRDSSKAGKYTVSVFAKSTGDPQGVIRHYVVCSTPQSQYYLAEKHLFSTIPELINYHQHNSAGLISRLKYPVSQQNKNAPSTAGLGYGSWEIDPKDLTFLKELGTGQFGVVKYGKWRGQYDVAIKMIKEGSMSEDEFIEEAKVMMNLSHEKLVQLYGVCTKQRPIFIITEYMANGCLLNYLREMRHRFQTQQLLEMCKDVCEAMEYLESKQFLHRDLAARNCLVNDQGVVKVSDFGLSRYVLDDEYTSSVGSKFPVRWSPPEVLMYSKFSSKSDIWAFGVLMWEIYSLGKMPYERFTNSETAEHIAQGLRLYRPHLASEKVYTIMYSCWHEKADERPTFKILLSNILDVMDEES
In words: In Vitro BTK Kinase Assay: Btk-PolyGAT-LS Assay. In kind it is biochemical. The note with it: active BTK enzyme 0.25 nM, polyGAT 100 nM, 30 minutes, TRF readout; read-out: In Vitro BTK Kinase Assay IC50 Score. The protocol:
The purpose of the BTK in vitro assay is to determine compound potency against BTK through the measurement of IC50. Compound inhibition is measured after monitoring the amount of phosphorylation of a fluorescein-labeled polyGAT peptide (Invitrogen PV3611) in the presence of active BTK enzyme (Upstate 14-552), ATP, and inhibitor. The BTK kinase reaction was done in a black 96 well plate (costar 3694). For a typical assay, a 24 μL aliquot of a ATP/peptide master mix (final concentration; ATP […], polyGAT 100 nM) in kinase buffer (10 mM Tris-HCl pH 7.5, 10 mM MgCl2, 200 μM […], 5 mM DTT, 0.01% Triton X-100, and 0.2 mg/ml casein) is added to each well. Next, […] of a 4-fold, 40× compound titration in 100% DMSO solvent is added, followed by adding 15 μL of BTK enzyme mix in 1× kinase buffer (with a final concentration of 0.25 nM). The assay is incubated for 30 minutes before being stopped with 28 μL of a 50 mM EDTA solution. Aliquots (5 uL) of the kinase reaction are transferred to a low volume white 384 well plate (Coming 3674), and 5 μL of a 2× detection buffer (Invitrogen PV3574, with 4 nM Tb—PY20 antibody, Invitrogen PV3552) is added. The plate is covered and incubated for 45 minutes at room temperature. Time resolved fluorescence (TRF) on Molecular Devices M5 (332 nm excitation; 488 nm emission; 518 nm fluorescein emission) is measured. IC50 values are calculated using a four parameter fit with 100% enzyme activity determined from the DMSO control and 0% activity from the EDTA control.

[3] abbreviates: human heparinized whole blood, anti-human IgD stimulation overnight, CD19+ B cells, flow cytometry.

pIC50: −log10 of the molar value. Read-outs that look alike come from different tables or passages of the source.

In the case of `Cn1cc(-c2cn3nccc3c(-c3ccc(CNC(=O)c4ccn(C(C)(C)C)n4)cc3)n2)cn1` [Example 1, 1-(tert-butyl)-N-(4-(6-(1-methyl-1H-pyrazol-4-yl)pyrazolo[1,5-a]pyrazin-4-yl)benzyl)-1H-pyrazole-3-carboxamide], the negative logarithm of the IC50 (pIC50) (usually −log10 of the IC50, conventionally taken in molar units) in test [1] (setting [3]) is 5.00 to 6.00; in test [2] it was 6.00 to 8.00.
With `Cn1cc(-c2cn3nccc3c(-c3ccc(CNC(=O)c4cn(C(C)(C)C)nn4)cc3F)n2)cn1` [Example 112, 1-(tert-butyl)-N-(3-fluoro-4-(6-(1-methyl-1H-pyrazol-4-yl)pyrazolo[1,5-a]pyrazin-4-yl)benzyl)-1H-1,2,3-triazole-4-carboxamide], the pIC50 was 5.00 to 6.00 in test [1] (setting [3]) and 8.00 to 9.00 in test [2].
Regarding `Cn1cc(-c2cn3nccc3c(N3CCC(F)(CNC(=O)c4noc(C(C)(C)C)n4)CC3)n2)cn1` [Example 160, 5-(tert-butyl)-N-((4-fluoro-1-(6-(1-methyl-1H-pyrazol-4-yl)pyrazolo[1,5-a]pyrazin-4-yl)piperidin-4-yl)methyl)-1,2,4-oxadiazole-3-carboxamide], the pIC50 in test [1] (setting [3]) was 5.00 to 6.00; in test [2], 8.00 to 9.00.
In the case of `Cn1cc(-c2cn3nccc3c(N3CC[C@@H](CNC(=O)c4noc(C(C)(C)C)n4)C(F)(F)C3)n2)cn1` (single isomer, unassigned) [Example 158], the pIC50 was above 6.00 in test [1] (setting [3]) and above 9.00 in test [2].
Regarding `Cn1cc(-c2cn3nccc3c(-c3cc(F)c(CNC(=O)c4nc(C(C)(C)C)no4)cc3F)n2)cn1` [Example 94, 3-(tert-butyl)-N-(2,5-difluoro-4-(6-(1-methyl-1H-pyrazol-4-yl)pyrazolo[1,5-a]pyrazin-4-yl)benzyl)-1,2,4-oxadiazole-5-carboxamide], the negative logarithm of the IC50 (pIC50) in test [1] (setting [3]) is above 6.00; in test [2], above 9.00.
Consider `Cc1cc(-c2nc(-c3cnn(C)c3)cn3nccc23)ccc1CNC(=O)c1nnc(C(C)(C)C)o1` [Example 14, 5-(tert-butyl)-N-(2-methyl-4-(6-(1-methyl-1H-pyrazol-4-yl)pyrazolo[1,5-a]pyrazin-4-yl)benzyl)-1,3,4-oxadiazole-2-carboxamide], for which the pIC50 in test [1] (Homo sapiens) is above 6.00; in test [2], above 9.00.
With `Cn1cc(-c2cn3ncnc3c(N3CCC(CNC(=O)c4nnn(C(C)(C)C)n4)CC3)n2)cn1` [Example 72, 2-(tert-butyl)-N-((1-(6-(1-methyl-1H-pyrazol-4-yl)-[1,2,4]triazolo[1,5-a]pyrazin-8-yl)piperidin-4-yl)methyl)-2H-tetrazole-5-carboxamide], the pIC50 was 5.00 to 6.00 in test [1] (setting [3]) and 8.00 to 9.00 in test [2].
Taken in the same sequence, the figures for `Cn1cc(-c2cc(-c3ccc(CNC(=O)c4cn(C(C)(C)C)nn4)c(F)c3)c3ccnn3c2)cn1` [Example 69, 1-(tert-butyl)-N-(2-fluoro-4-(6-(1-methyl-1H-pyrazol-4-yl)pyrazolo[1,5-a]pyridin-4-yl)benzyl)-1H-1,2,3-triazole-4-carboxamide] were above 6.00 and above 9.00.
Turning to `Cn1cc(-c2cn3nccc3c(N3CC[C@H](CNC(=O)c4noc(C5(C)CC5)n4)[C@H](F)C3)n2)cn1` [Example 154, N-(((3S,4R)-3-fluoro-1-(6-(1-methyl-1H-pyrazol-4-yl)pyrazolo[1,5-a]pyrazin-4-yl)piperidin-4-yl)methyl)-5-(1-methylcyclopropyl)-1,2,4-oxadiazole-3-carboxamide], the pIC50 in test [1] (setting [3]) was 5.00 to 6.00; in test [2], 6.00 to 8.00.
The matching figures for `Cc1cc(-c2nc(-c3cnn(C)c3)cc3nccn23)ccc1CNC(=O)c1noc(C(C)(C)C)n1` [Example 78, 5-(tert-butyl)-N-(2-methyl-4-(7-(1-methyl-1H-pyrazol-4-yl)imidazo[1,2-c]pyrimidin-5-yl)benzyl)-1,2,4-oxadiazole-3-carboxamide]: above 6.00 and above 9.00.
On to `Cc1cc(-c2nc(N3CCN(C)CC3)cn3nccc23)ccc1CNC(=O)c1nnn(C(C)(C)C)n1` [Example 130], for which the values for the pIC50 in test [1] (setting [3]) and in test [2] were 5.00 to 6.00 and 8.00 to 9.00, respectively.
Taken in the same sequence, the figures for `Cn1cc(-c2cn3nccc3c(-c3ccc(CNC(=O)c4cnn(C(C)(C)C)c4)c(F)c3)n2)cn1` [Example 10, 1-(tert-butyl)-N-(2-fluoro-4-(6-(1-methyl-1H-pyrazol-4-yl)pyrazolo[1,5-a]pyrazin-4-yl)benzyl)-1H-pyrazole-4-carboxamide] were above 6.00 and above 9.00.
Take `Cn1cc(-c2cn3nccc3c(-c3ccc(CNC(=O)c4nnn(C(C)(C)C)n4)c(C(F)F)c3)n2)cn1` [Example 106, 2-(tert-butyl)-N-(2-(difluoromethyl)-4-(6-(1-methyl-1H-pyrazol-4-yl)pyrazolo[1,5-a]pyrazin-4-yl)benzyl)-2H-tetrazole-5-carboxamide]: the pIC50 in test [1] (setting [3]) is above 6.00; in test [2], above 9.00.
The matching figures for `Cn1cc(-c2cn3nccc3c(-c3ccc(CNC(=O)c4noc(C(C)(C)C)n4)cc3F)n2)cn1` [Example 83, 5-(tert-butyl)-N-(3-fluoro-4-(6-(1-methyl-1H-pyrazol-4-yl)pyrazolo[1,5-a]pyrazin-4-yl)benzyl)-1,2,4-oxadiazole-3-carboxamide]: above 6.00 and 8.00 to 9.00.
With `Cn1cc(-c2cn3nccc3c(-c3ccc(CNC(=O)c4nnn(C(C)(C)C)n4)nc3)n2)cn1` [Example 115, 2-(tert-butyl)-N-((5-(6-(1-methyl-1H-pyrazol-4-yl)pyrazolo[1,5-a]pyrazin-4-yl)pyridin-2-yl)methyl)-2H-tetrazole-5-carboxamide], the pIC50 in test [1] (setting [3]) is 5.00 to 6.00; in test [2] it was 8.00 to 9.00.
The matching figures for `Cn1cc(-c2cn3nccc3c(-c3ccc(CNC(=O)c4nc(C(C)(C)C)no4)cc3)n2)cn1` [Example 19, 3-(tert-butyl)-N-(4-(6-(1-methyl-1H-pyrazol-4-yl)pyrazolo[1,5-a]pyrazin-4-yl)benzyl)-1,2,4-oxadiazole-5-carboxamide]: above 6.00 and above 9.00.
The matching figures for `Cn1cc(-c2cn3nccc3c(-c3ccc(CNC(=O)c4cn(C(C)(C)C)nn4)c(C(F)F)c3)n2)cn1` [Example 105, 1-(tert-butyl)-N-(2-(difluoromethyl)-4-(6-(1-methyl-1H-pyrazol-4-yl)pyrazolo[1,5-a]pyrazin-4-yl)benzyl)-1H-1,2,3-triazole-4-carboxamide]: above 6.00 and above 9.00.
For the molecule `Cn1cc(-c2cn3nccc3c(-c3ccc(CNC(=O)c4cnn(C(C)(C)C)c4)cc3)n2)cn1` [Example 2, 1-(tert-butyl)-N-(4-(6-(1-methyl-1H-pyrazol-4-yl)pyrazolo[1,5-a]pyrazin-4-yl)benzyl)-1H-pyrazole-4-carboxamide], the pIC50 in test [1] (setting [3]) is above 6.00; in test [2], 8.00 to 9.00.
As to `Cn1cc(-c2cn3nccc3c(N3CCC(CNC(=O)c4noc(C(C)(C)C)n4)C(F)(F)C3)n2)cn1` (stereo not shown) [Example 157, 5-(tert-butyl)-N-((3,3-difluoro-1-(6-(1-methyl-1H-pyrazol-4-yl)pyrazolo[1,5-a]pyrazin-4-yl)piperidin-4-yl)methyl)-1,2,4-oxadiazole-3-carboxamide], the negative-log IC50 (pIC50) in test [1] (setting [3]) was above 6.00; in test [2] it was above 9.00.
On to `Cn1cc(-c2cn3nccc3c(-c3ccc(CNC(=O)c4cnn(C(C)(C)C)n4)cc3F)n2)cn1` [Example 113, 2-(tert-butyl)-N-(3-fluoro-4-(6-(1-methyl-1H-pyrazol-4-yl)pyrazolo[1,5-a]pyrazin-4-yl)benzyl)-2H-1,2,3-triazole-4-carboxamide], for which the pIC50 was 5.00 to 6.00 in test [1] (setting [3]) and 8.00 to 9.00 in test [2].
